Results on 15 molecules are retold here after PubChem BioAssay (NCI).

Several values for one entry are separate records, joined by “and”; a condition that tells them apart may be missing. Equal values may be shown once.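 Method: 48-hour compound exposure of cells in 96-well plates, five concentrations, linear interpolation of endpoints. GI50 marks 50% less growth. TGI marks complete inhibition of growth.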

Test systems include M14 melanoma; OVCAR-3 ovarian; OVCAR-8 ovarian; BT-549 breast; CCRF-CEM leukemia; DLD-1 colon; DMS 273 small cell lung; KM20L2 colon.
Assay in all cases: NCI tumour cell line growth inhibition, 48 h

In the case of `O=C1OC(c2ccccc2)=N/C1=C\c1cccc(F)c1`, the TGI with M14 melanoma was above 100 µM; in the test with OVCAR-3 ovarian, above 100 µM; in the test with OVCAR-8 ovarian it was 64.9 µM; in the test on BT-549 breast, above 100 µM; with CCRF-CEM leukemia, 72.7 µM.
`O=C1C=CC(O)C2C1CC13SSC4(CC5C(=O)C=CC(O)C5N4C1=O)C(=O)N23` (centres undefined): the TGI was determined as 0.752 µM with M14 melanoma; 0.53 µM with OVCAR-3 ovarian; 0.271 µM in the test on OVCAR-8 ovarian; 3.65 µM with BT-549 breast; 1.95 µM with CCRF-CEM leukemia.
Turning to `Cc1nc(Nc2nc3ccccc3o2)nc(-c2cccc([N+](=O)[O-])c2)c1C(=O)Nc1ccc(F)c(Cl)c1`, the GI50 in the test on M14 melanoma is 3.26 µM; in the test on OVCAR-3 ovarian, 1.02 µM; with OVCAR-8 ovarian, 2.44 µM; in the test on BT-549 breast it was 3.08 µM; with CCRF-CEM leukemia, 2.34 µM. The TGI with M14 melanoma is above 100 µM; in the test with OVCAR-3 ovarian, 13.8 µM; in the test with OVCAR-8 ovarian, above 100 µM; in the test with BT-549 breast it was 68.4 µM; in the test with CCRF-CEM leukemia, 24.2 µM.
With `CO[C@H]1CC(c2ccc[nH]2)=N[C@]12O[C@@H](C)C[C@@H]1CCCCCCCc3ccc([nH]3)[C@H]12`, the GI50 in the test on M14 melanoma was 0.898 µM; in the test with OVCAR-3 ovarian it was 0.942 µM; in the test with OVCAR-8 ovarian, 1.17 µM; with BT-549 breast, 1.21 µM; in the test with CCRF-CEM leukemia it was 0.704 µM. In addition, the TGI with M14 melanoma was 3.35 µM; with OVCAR-3 ovarian, 5.62 µM; with OVCAR-8 ovarian, above 33.3 µM; in the test with BT-549 breast, 9.31 µM; in the test with CCRF-CEM leukemia it was above 30.4 µM.
For `COc1cc(/C=C/C(=O)c2cccnc2Nc2ccc(F)cc2)cc(OC)c1OC`, the GI50 in the test on M14 melanoma was 3.19 µM; in the test with OVCAR-3 ovarian, 2.63 µM; with OVCAR-8 ovarian it was 2.69 µM; with BT-549 breast it was 2.7 µM; in the test on CCRF-CEM leukemia it was 2.45 µM. Besides, the TGI with M14 melanoma was 9.94 µM; with OVCAR-3 ovarian it was 6.61 µM; in the test on OVCAR-8 ovarian, 13.4 µM; in the test on BT-549 breast, 6.72 µM; in the test with CCRF-CEM leukemia, 9.87 µM.
Regarding `O=C(CC1C(=O)Nc2ccccc2S1=O)Nc1ccc(Cl)cc1` (centres undefined), the TGI in the test on M14 melanoma, in the test with OVCAR-3 ovarian, in the test with OVCAR-8 ovarian, in the test with DLD-1 colon, in the test with DMS 273 small cell lung and with KM20L2 colon was above 100 µM in each case.
`Cc1c(Sc2ccccc2)[n+](=O)c2cc(Cl)c(Cl)cc2n1[O-]`: the GI50 was 46.8 µM in the test on M14 melanoma; 23.3 µM with OVCAR-3 ovarian; 25.6 µM with OVCAR-8 ovarian; 27.8 µM in the test with BT-549 breast; 32.8 µM with CCRF-CEM leukemia. The TGI is above 100 µM in the test on M14 melanoma; 60.4 µM in the test on OVCAR-3 ovarian; above 100 µM in the test on OVCAR-8 ovarian; 58.9 µM with BT-549 breast; above 100 µM with CCRF-CEM leukemia.
As for `CCn1c2ccccc2c2cc(C(O)c3cccc4ncccc34)ccc21` (centres undefined), the GI50 in the test with M14 melanoma was 0.0468 µM; with OVCAR-3 ovarian, 0.0422 µM; with OVCAR-8 ovarian, 0.122 µM; in the test on BT-549 breast, 0.0702 µM; in the test with CCRF-CEM leukemia it was 0.0484 µM. Also, the TGI in the test on M14 melanoma is above 100 µM; in the test with OVCAR-3 ovarian, 39.9 µM; in the test on OVCAR-8 ovarian, above 69.4 µM; in the test on BT-549 breast it was 15.6 µM; with CCRF-CEM leukemia it was above 100 µM.
Regarding `CC(C)CCN[C@@H]1CCc2cc(O)c(N3CC(=O)NS3(=O)=O)c(F)c2C1`, the GI50 in the test on M14 melanoma is above 100 µM; with OVCAR-3 ovarian, above 100 µM; in the test with OVCAR-8 ovarian, above 100 µM; in the test on BT-549 breast, 5.44 µM; in the test with CCRF-CEM leukemia, above 100 µM. Besides, the TGI with M14 melanoma, in the test on OVCAR-3 ovarian, with OVCAR-8 ovarian, with BT-549 breast and in the test with CCRF-CEM leukemia was above 100 µM in each case.
On to `Clc1nc(Cl)c2ncn(Cc3ccc(Cn4cnc5c(Cl)nc(Cl)nc54)cc3)c2n1`, for which the GI50 in the test with M14 melanoma was 11.2 µM; in the test with OVCAR-3 ovarian it was 8.68 µM; in the test on OVCAR-8 ovarian, 10.4 µM. Moreover, the TGI with M14 melanoma stood at 27 µM; in the test on OVCAR-3 ovarian it was 25.6 µM; in the test on OVCAR-8 ovarian it was 25 µM; with BT-549 breast, 18.9 µM; with CCRF-CEM leukemia, 1.84 µM.
Regarding `OCCN1CCN(CC/C=C2\c3ccccc3Sc3ccc(Cl)cc32)CC1`, the GI50 in the test on M14 melanoma is 1.78 µM; in the test on OVCAR-3 ovarian it was 2.88 µM and 5.66 µM; in the test with OVCAR-8 ovarian, 7.95 µM and 7.2 µM; in the test with BT-549 breast it was 7.89 µM; in the test on CCRF-CEM leukemia, 1.61 µM and 3.29 µM. The TGI in the test on M14 melanoma was 4.27 µM and 3.22 µM; with OVCAR-3 ovarian, 13.1 µM and 17.8 µM; with OVCAR-8 ovarian, 28.3 µM and 19.8 µM; in the test with BT-549 breast it was 22.4 µM; in the test with CCRF-CEM leukemia, 4.58 µM and 11.9 µM.
As to `Cc1cc(OCc2nnc3n2N=C(c2ccc(Cl)cc2Cl)CS3)ccc1Cl`, the GI50 in the test on M14 melanoma was 43.4 µM; in the test on OVCAR-3 ovarian, 35.9 µM; with OVCAR-8 ovarian, 45 µM; in the test with BT-549 breast, 25.9 µM; in the test with CCRF-CEM leukemia, 42.2 µM. Also, the TGI in the test with M14 melanoma, with OVCAR-3 ovarian, in the test on OVCAR-8 ovarian, in the test on BT-549 breast and in the test on CCRF-CEM leukemia was above 100 µM in each case.
With `COc1cc2c3c(n(CCCN=[N+]=[N-])c(=O)c2cc1OC)-c1ccc(N(C)C)cc1C3=O`, the GI50 in the test with M14 melanoma, with OVCAR-3 ovarian, in the test with OVCAR-8 ovarian, in the test with BT-549 breast and in the test with CCRF-CEM leukemia was above 100 µM in each case. In addition, the TGI in the test on M14 melanoma, in the test with OVCAR-3 ovarian, in the test on OVCAR-8 ovarian, in the test with BT-549 breast and in the test with CCRF-CEM leukemia was above 100 µM throughout.
For the molecule `Cc1ncc([N+](=O)[O-])n1CCNC(=O)Cn1c([N+](=O)[O-])cnc1C`, the TGI with M14 melanoma, in the test on OVCAR-3 ovarian, with OVCAR-8 ovarian, in the test with BT-549 breast and with CCRF-CEM leukemia was above 100 µM in each case.
For `C=C1c2c(Cl)ccc(O)c2C(O)=C2C(=O)[C@]3(O)C(O)=C(C(N)=O)C(=O)[C@@H](N(C)C)[C@@H]3[C@@H](O)[C@H]12`, the GI50 in the test on M14 melanoma is 1.32 µM; with OVCAR-3 ovarian, 1.36 µM; in the test with OVCAR-8 ovarian it was 1.32 µM; with BT-549 breast it was 1.07 µM; in the test on CCRF-CEM leukemia, 1.45 µM. For the same molecule, the TGI was 5.79 µM in the test with M14 melanoma; 5.25 µM with OVCAR-3 ovarian; 8.12 µM in the test on OVCAR-8 ovarian; 3.24 µM in the test with BT-549 breast; 39.6 µM with CCRF-CEM leukemia.
